Measurements: ChEMBL document CHEMBL2029321, “Identification of chalcones as potent and selective PDE5A1 inhibitors” (Bioorg Med Chem Lett, 2012)

What was measured:
[1] = biological target: cGMP-specific 3',5'-cyclic phosphodiesterase (Homo sapiens) (UniProt O76074); assay: Inhibition of PDE5A1 at 10 ug/mL
[2] = biological target: cGMP-specific 3',5'-cyclic phosphodiesterase (Bos taurus, UniProt Q28156); assay: Inhibition of bovine platelet PDE5
[3] = Inhibition of rabbit corpus cavernosum PDE6; design: species or system Oryctolagus cuniculus
Phosphodiesterase 4 = Phosphodiesterase 4 (Homo sapiens, UniProt P27815+Q08499+Q07343+Q08493); assay: Inhibition of human neutrophil PDE4; format: protein assay

inhibition [1] | IC50 [2] | IC50 [3] | IC50 (Phosphodiesterase 4) | SMILES
47.4% |  |  |  | COc1ccc(OC)c(/C=C/C(=O)c2cc(OC)c(OC)cc2CCNC(C)=O)c1
19.9% |  |  |  | COc1ccccc1/C=C/C(=O)c1cc(OC)c(OC)cc1CCNC(C)=O
47.3% |  |  |  | COc1ccc(OC)c(/C=C/C(=O)c2ccc(OC)c(OC)c2)c1
46.7% |  |  |  | COc1ccc(C(=O)/C=C/c2cccc(OC)c2OC)c(OC)c1
39.5% |  |  |  | COc1ccc(C(=O)/C=C/c2cc(Cl)ccc2Cl)c(OC)c1
45.5% |  |  |  | COc1ccc(/C=C/C(=O)c2cc(OC)c(OC)cc2CCNC(C)=O)c(OC)c1
43.9% |  |  |  | COc1cccc(/C=C/C(=O)c2c3c(c(OC)c4c2OCO4)CN(C)CC3)c1OC
26.6% |  |  |  | COc1ccc(OC)c(/C=C/C(=O)c2ccc(SC)cc2)c1
24.9% |  |  |  | COc1ccc(OC)c(C(=O)/C=C/c2cc(OC)c(C)cc2OC)c1
45.5% |  |  |  | COc1ccc(OC)c(/C=C/C(=O)c2c3c(c(OC)c4c2OCO4)CN(C)CC3)c1
64.8% | 6.2 µM | > 10 µM | > 10 µM | COc1cccc(/C=C/C(=O)c2c3c(c(OC)c4c2OCO4)CN(C)CC3)c1
 |  | 0.4 µM |  | CCCOc1ccccc1-c1nc2[nH]nnc2c(=O)[nH]1 [ZAPRINAST]
43.1% |  |  |  | COc1ccc(C(=O)/C=C/c2ccccc2OC)c(OC)c1
 |  | > 10 µM |  | COc1ccc(C2CNC(=O)C2)cc1OC1CCCC1 (configuration not stated) [ROLIPRAM]
35.7% |  |  |  | COc1ccc(/C=C/C(=O)c2c(O)cc(OC)c(OC)c2OC)c(OC)c1
8.1% |  |  |  | COc1ccc(OC)c(/C=C/C(=O)c2ccc(Cl)cc2)c1

inhibition [1] | IC50 [2] | IC50 [3] | IC50 (Phosphodiesterase 4) | SMILES
23.8% |  |  |  | COc1ccc(C(=O)/C=C/c2ccc(OC)c(OC)c2)c(O)c1
66.1% | 7 µM | > 10 µM | 8.2 µM | COc1ccc(OC)c(C(=O)/C=C/c2ccc(OC)c(OC)c2)c1
65.9% | 1.8 µM | > 10 µM | > 10 µM | COc1ccc(C(=O)/C=C/c2cc(OC)c(OC)cc2OC)c(OC)c1
35.1% |  |  |  | COc1ccc(/C=C/C(=O)c2c3c(c(OC)c4c2OCO4)CN(C)CC3)c(OC)c1
31.8% |  |  |  | COc1ccc(/C=C/C(=O)c2c3c(c(OC)c4c2OCO4)CN(C)CC3)cc1
7.2% |  |  |  | COC(=O)C[N+]1(C)CCc2c(cc3c(c2C(=O)/C=C/c2cc(OC)ccc2OC)OCO3)C1 (configuration not stated)
58.7% | 6 µM | > 10 µM | 4.9 µM | COc1ccc(OC)c(/C=C/C(=O)c2ccc(OC)cc2OC)c1
 |  | 0.1 µM |  | CCCc1nn(C)c2c(=O)[nH]c(-c3cc(S(=O)(=O)N4CCN(C)CC4)ccc3OCC)nc12
3.5% |  |  |  | COc1ccc(/C=C/C(=O)c2cc(Cl)ccc2OC)cc1OC
18.3% |  |  |  | COC(=O)C[N+]1(C)CCc2c(c(OC)c3c(c2C(=O)/C=C/c2ccc(OC)cc2OC)OCO3)C1 (configuration not stated)
25.6% |  |  |  | COc1ccc(/C=C/C(=O)c2cc(OC)ccc2OC)cc1
20.2% |  |  |  | COc1ccc(OC)c(/C=C/C(=O)c2cc(OC)c(C)cc2OC)c1
8.17% |  |  |  | COc1c2c(c(C(=O)/C=C/c3ccc(Cl)cc3Cl)c3c1OCO3)CCN(C)C2
37.1% |  |  |  | COc1ccc(/C=C/C(=O)c2c3c(c(OC)c4c2OCO4)CN(C)CC3)c(OC)c1OC
27.7% |  |  |  | COc1cc(CCNC(C)=O)c(C(=O)/C=C/c2cccc(OC)c2OC)cc1OC
77.7% | 5.9 µM | > 10 µM | 2.3 µM | COc1ccc(/C=C/C(=O)c2c(OCc3ccccc3)cc(OC)c(OC)c2OC)cc1OC
